# Laboratory results from US20090253709A1 (NATIONAL DEFENSE MEDICAL CENTER, priority 2008, published 2009).
# Columns and labels:
# H1299 = assay: MTT assay in H1299 cells; assay type: cell-based
# Protocol: H1299 is a non-small cell lung cancer cell line with telomerase activity. The cell extract of H1299 cell lines can be used for selecting the telomerase activity inhibitors in vitro and the telomerase activity-inhibited substances in vivo. H1299 cell line was incubated with RPMI 1640 medium supplemented with 10% of fetal bovine serum (FBS). A total of 2×10^3 […] cells were seeded in the 96-well cell culture plate, and incubated with DMEM (GIBCO®)/glucose mixture and Medium 199 (GIBCO®)/10% FBS/1 mM sodium pyruvate (GIBCO®)/4 mM L-glutamine (GIBCO®) mixture at a ratio of 4:1 at 37° C. for 24 hours. […] After 48 hours of drug treatment, the cultured medium were collected for performing the analysis of SEAP activity. The cells were washed with 1×PBS once immediately, and the MTT assay was performed to compare the compounds with the relative toxicity or the influence to the proliferation and activity. Mitochondria is the place for cellular respiration, and there are many reductive reactions catalyzed by dehydrogenases. MTT is a water-soluble yellow compound, and the […] will be formed after reduction. This crystal can be dissolved in the organic solvent, and has high absorbance at the wavelength of 570 nm. The higher cellular activity or more cell numbers, the more generated crystal violets. Therefore, the cellular activity and cell number can be obtained by the MTT assay. MTT solution was prepared by dissolving MTT powder in PBS solution to achieve 5 mg/ml, filtrated and stored at 4° C. Lysis buffer contained 20% (w/v) of SDS in 50% of N,N-dimethylformamide (DMF, Riedel-deHaën). After the cells were incubated in the 96-well culture plate, the original medium was discarded, 100 μl of the fresh serum-free medium per well and 25 μl of MTT solution per well were added in respectively, and the cells were further incubated in the CO2 incubator at 37° C. for 4 hours. Then, 100 μl of lysis buffer per well was added in and incubated overnight in the CO2 incubator at 37° C. The absorbance at 570 nm was determined by the ELISA reader. The selection of telomerase inhibitors of the anthraquinone compounds provided in the present invention was performed by the […]-driven SEAP system. SEAP is the communication gene in this drug selection model. The SEAP inhibition was shown as follows. […] Subsequently, the linear slope of absorbance to the measuring time was calculated, and the variance of absorbance at 405 nm per minute was represented and compared with the SEAP-producing result of drug-untreated H1299 cells. In addition, the influence of the cell-treated drug solution to the cellular proliferation and the drug toxicity to the cells were considered, and the cellular growth was evaluated by the MTT assay. The drug-treated cells were analyzed by the SEAP assay and the data analysis of MTT assay at the same time. Both results were compared so as to delete the influence of cell number or the activity to SEAP, and the dose-dependent phenomenon could be anticipated in the range of drug concentration designed by the laboratory. […] Since the chemically-synthetic drugs have colors thereon, the SEAP value of drug-treatment without cells was also determined to be the background value which was deducted while treating with the drugs. The candidate drug for inhibiting telomerase on the hTERT gene expression level was evaluated and anticipated.
# BJ1 = assay: MTT assay in BJ1 cells; assay type: cell-based
# Protocol: A total of 2×10^3 […] cells were seeded in the 96-well cell culture plate, and incubated with DMEM (GIBCO®)/glucose mixture and Medium 199 (GIBCO®)/10% FBS/1 mM sodium pyruvate (GIBCO®)/4 mM L-glutamine (GIBCO®) mixture at a ratio of 4:1 at 37° C. for 24 hours. […] After 48 hours of drug treatment, the cultured medium were collected for performing the analysis of SEAP activity. The cells were washed with 1×PBS once immediately, and the MTT assay was performed to compare the compounds with the relative toxicity or the influence to the proliferation and activity. Mitochondria is the place for cellular respiration, and there are many reductive reactions catalyzed by dehydrogenases. MTT is a water-soluble yellow compound, and the […] will be formed after reduction. This crystal can be dissolved in the organic solvent, and has high absorbance at the wavelength of 570 nm. The higher cellular activity or more cell numbers, the more generated crystal violets. Therefore, the cellular activity and cell number can be obtained by the MTT assay. MTT solution was prepared by dissolving MTT powder in PBS solution to achieve 5 mg/ml, filtrated and stored at 4° C. Lysis buffer contained 20% (w/v) of SDS in 50% of N,N-dimethylformamide (DMF, Riedel-deHaën). After the cells were incubated in the 96-well culture plate, the original medium was discarded, 100 μl of the fresh serum-free medium per well and 25 μl of MTT solution per well were added in respectively, and the cells were further incubated in the CO2 incubator at 37° C. for 4 hours. Then, 100 μl of lysis buffer per well was added in and incubated overnight in the CO2 incubator at 37° C. The absorbance at 570 nm was determined by the ELISA reader.
smiles,measurement,setting,value
"O=C1c2ccc(NC(=O)C3CCCC3)cc2C(=O)c2cc(NC(=O)C3CCCC3)ccc21 [Compound 33, 2,7-Bis(cyclopentanecarbonamido)anthraquinone]",viability,H1299; 1 µM,91 ± 12%
same,viability,H1299; 10 µM,77 ± 6%
same,viability,H1299; 100 µM,42 ± 12%
same,viability,BJ1; 1 µM,77 ± 1%
same,viability,BJ1; 10 µM,68 ± 1%
same,viability,BJ1; 100 µM,58 ± 1%
